In one data set the test system is SKOV3 cells. Nature of the data set: Apoptosis induction in SKOV3 cells (cell and nuclear morphology after DAPI, caspase 3 activation and PARP cleavage by Western blot). Type of data set: cell-based, human. The method, then:
Exponentially growing cells were exposed to CDDP for 2 hours at 37° C., in serum free medium. After exposure to the drug, the cell layers were rinsed and incubated in complete growth medium.
The siRNA duplexes were transfected according to the recommended procedure by using the Oligofectamine Reagent and Opti-MEM medium (INVITROGEN LIFE TECHNOLOGIES). 30-40% confluent cells were transfected in 25 cm^2 flasks with different concentrations of siXL1, siRNA Mcl-1 or siRNA control and incubated at 37° C., 5% CO2 for 4 hours. Next, 20% fetal bovin serum was added to reach a final concentration of 10% foetal bovin serum in the 25 cm^2 flask.
Cells were rinsed with ice cold PBS and lysed in 150 mM NaCl, 50 mM Tris-HCl pH 8, 1% Triton X100, 4 mM PMSF, 2 mM Aprotinin, 5 mM EDTA, 10 mM NaF, 10 mM NaPPi, 1 mM Na3VO4 for 30 min on ice. Lysates were clarified by centrifugation at 10000 g for 10 min at 4° C. and protein concentrations were determined using the Bradford assay (BIO-RAD). Equal amounts of total cellular protein (20 μg) were resolved in a Bis-tris-HCL buffered (pH 6.4) 4-12% polyacrylamide gel (NuPAGE® Novex® 4-12% Bis-tris gel, INVITROGEN) for 35 min at 200V and electrophoretically transferred on a PVDF membrane (MILLIPORE) for 75 min at 30V. The membrane was blocked for 1 hour at room temperature in T-TBS (132 mM NaCl, 20 mM Tris-HCl pH 7.6, 0.05% Tween 20) supplemented with 5% non-fat dry milk. The membrane was incubated for 1 hour at room temperature in T-TBS-milk with the following primary antibodies: anti-Bcl-XL/S (1:500, S18 SANTA-CRUZ BIOTECHNOLOGY), anti-PARP (1:1000, CELL-SIGNALING TECHNOLOGY), anti-caspase-3 (1:1000, BD BIOSCIENCES PHARMINGEN) anti-cleaved caspase-3 (1:1000, CELL-SIGNALING TECHNOLOGY), anti-alpha-tubulin (1:3000, SIGMA) and anti-Mcl-1 (1:750, S19 SANTA-CRUZ BIOTECHNOLOGY). After three washes with T-TBS, the membrane was incubated for 1 h at room temperature in T-TBS-milk with the adequate peroxidase conjugated secondary antibody (Anti-rabbit IgG, CELL-SIGNALING TECHNOLOGY, and anti-mouse IgG, AMERSHAM). After 3 washes with T-TBS and one with TBS, the immunoreactivity was detected by enhanced chemiluminescence (ECL kit, AMERSHAM).
After treatment, detached cells were collected separately and adherent cells were dissociated by trypsin/EDTA. Adherent and detached cells were then pooled and centrifuged at 1500×g for 5 min before being fixed in 70% ethanol. The cells were then collected on a polylysine-coated glass slide by cytocentrifugation, before a 30 min room temperature incubation in a 1 μg/ml DAPI aqueous solution (BOEHRINGER MANNHEIM). Slides were thereafter extensively washed in distilled water and mounted in Mowiol (CALBIO-CHEM).
For orientation: Immunoblotting shows a protein as a band on a membrane.

Data set [1] deals with subcutaneous SKOV3 human ovarian carcinoma. Nature of the data set: Growth of subcutaneous SKOV3 tumours in nude mice. Type of data set: in vivo. Conditions: 25 μg/kg intraperitoneally once a week, FIG. 16. The method, then: PEI/siRNA complexes were prepared in 5% glucose solution with a ratio of L-PEI nitrogen to siRNA phosphate of 5:1. Various amounts of siRNA (125, 625 or 2500 ng) and L-PEI were diluted separately, and PEI was then added to the siRNA. The solution was quickly homogenized and left for 15 min at room temperature. It was injected intraperitoneally in mice as a 0.5 ml 5% glucose solution.
SKOV3 cells (2×10^7/500 μL) were inoculated subcutaneously into the right flank of nude mice, and establishment of palpable tumours was determined. The tumour volume was calculated as v=L×l^2×p/6 where L and l represent the larger and the smaller tumour diameter measured twice week with digital caliper. When tumours reached an average volume of ˜100 mm^3 (on day 10), three experimental groups (three mice per group) were tested as follow: (a) untreated, (b) siXL1 naked (25 μg/kg), and (c) siXL1-PEI (25 μg/kg). The samples were diluted in 0.5 ml 0.9% NaCl solution (siRNA naked) or in 0.5 ml 5% glucose solution (siRNA-PEI) and injected intraperitoneally. This process was repeated once a week.

“siXL1: double-stranded siRNA blocking Bcl-XL expression; sense 5′-auuggugagucggaucgcatt-3′ (SEQ ID NO: 5), anti-sense 5′-ugcgauccgacucaccaautt-3′ (SEQ ID NO: 6) (sense AUUGGUGAGUCGGAUCGCATT; antisense UGCGAUCCGACUCACCAAUTT; chemistry not given here)”: in the data set with SKOV3 cells (24 h, combination with 20 μg/ml cisplatin), the “caspase 3 activation and PARP cleavage after 24 h exposure to cisplatin” value is on record as “detectable”. Moreover, the “apoptosis induction (cellular and nuclear morphology, caspase 3 cleavage)” value with SKOV3 cells (72 h after transfection, FIG. 5) was “moderate apoptosis”. Further, the “apoptosis / cell death (nuclear fragmentation and condensation, morphology, pre-G1 peak)” value with SKOV3 cells (alone 150 nM or in combination 75 nM each, FIGS. 13 and 14) is “moderate apoptosis”. The “effect on subcutaneous tumor growth” value in data set [1] is reported as “almost no effect”.
